Data published in patent US20240317748A1, “CARBONYL SUBSTITUTED DIAZASPIRO COMPOUNDS AND ITS USE” (BIONOVA PHARMACEUTICALS (SHANGHAI) LIMITED, priority 2021, published 2024).

Experiments:
MV-4-11 cells = experiment: Cell proliferation assay (CellTiter-Glo), MV-4-11; assay type: cell-based, human; conditions: Homo sapiens, MV4-11, 96 h; MV-4-11 (MLL-AF4), 4 days incubation; read-out: Cell antiproliferation assay MV-4-11 IC50
Description: (§1) The antiproliferative activity of test compounds was assessed in human leukemia cell lines. The cell line MV4-11, MOLM13 and OCI-AML3, which expresses the MLL fusion protein MLL-AF4, MLL-AF9 and carry the NPM1c gene mutation, respectively, were tested. HL-60 was used as a control cell line containing two MLL wildtype alleles in order to exclude compounds that display general cytotoxic effect. MV4-11 cells were cultured in IMDM supplemented with 10% FBS, MOLM13 and OCI-AML3 cells were cultured in RPMI1640 supplemented with 20% FBS, and HL-60 cells were cultured in IMDM supplemented with 20% FBS. Corresponding cells (MV4-11, MOLM13, OCI-AML3 or HL-60 cell line) were seeded in 100 uL medium per well in 96-well plate (white wall with clear bottom, tissue culture treated, Corning, Cat. No. CLS3903; Lot.No. 30419025). Plates were placed in the CO2 incubator overnight. Compounds solution (2 mM starting, 4-fold serial dilution) were prepared and added to the wells containing 100 μL of the culture medium with HPD300 according to the plate map and centrifuge at 1000 rpm for 1 minutes (200-fold dilution totally). MV4-11, MOLM13, OCI-AML3 and HL-60 cells were incubated with the compounds for 4, 12, 5 and 4 days, respectively, under 5% CO2 at 37° C., respectively. 100 μL of CellTiter-Glo reagent (Promega, Cat. No. G7573, Lot. No. 0000416710) was added to the assay plate by Multidrop Combi instrument, contents were mixed for 10 minutes on an orbital shaker to induce cell lysis. After incubation at room temperature for 10 mins, clear bottom with white back seal was pasted and luminescence with Envision was read.

Menin-MLL1 = biological target: T1, Menin-MLL1 (Homo sapiens, UniProt O00255); experiment: Menin-MLL1 inhibition assay (fluorescence polarization, Menin protein + FAM-MLL peptide); assay type: binding; conditions: Menin (2-610) isoform 2, FAM-labelled MLL peptide, mP readout; read-out: Biochemical assay Menin-MLL1 IC50
T1 construct: Menin (2-610) isform2; purchased ChemPartner 2020111101
T1 sequence (O00255 2-610): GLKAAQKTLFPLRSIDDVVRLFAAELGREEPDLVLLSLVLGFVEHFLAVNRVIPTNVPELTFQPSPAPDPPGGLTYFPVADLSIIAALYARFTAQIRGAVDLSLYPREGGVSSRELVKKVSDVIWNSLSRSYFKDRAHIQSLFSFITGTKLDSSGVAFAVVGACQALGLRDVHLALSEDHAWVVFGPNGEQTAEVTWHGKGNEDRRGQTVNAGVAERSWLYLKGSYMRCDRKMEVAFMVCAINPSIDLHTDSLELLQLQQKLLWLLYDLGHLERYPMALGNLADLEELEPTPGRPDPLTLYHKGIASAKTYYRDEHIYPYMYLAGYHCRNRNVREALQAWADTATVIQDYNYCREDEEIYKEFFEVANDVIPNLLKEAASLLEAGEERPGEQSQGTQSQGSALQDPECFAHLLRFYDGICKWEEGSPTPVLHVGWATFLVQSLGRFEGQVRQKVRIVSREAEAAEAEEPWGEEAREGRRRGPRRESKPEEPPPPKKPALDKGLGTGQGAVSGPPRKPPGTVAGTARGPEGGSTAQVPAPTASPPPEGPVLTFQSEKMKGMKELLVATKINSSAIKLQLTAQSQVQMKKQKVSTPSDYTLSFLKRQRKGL
Description: 1× assay bu9ffer (Tris 7.5 50 mM, NaCl 50 mM, DTT 1 mM, Tween-20 0.01%) was prepared and test compounds solution (10 mM in DMSO, Sigma, Cat. No. 34869) were transferred to assay plate (384-well plate, Perkin Elmer, Cat. No. 6007279) by Echo. The final fraction of DMSO is 1%. 20 nM of Menin protein (Menin (2-610) isform2, ChemPartner, Cat. No. 2020111101) in 1× assay buffer was added to prepare 2× enzyme solution. Then 10 nM of MLL-peptide (Ac-SRWRFPARPGTGRR-Ahx-Ahx-K(FAM)-NH2, GL Biochem (Shanghai)), Cat. No. 833831/202009220104) in 1× assay buffer was added to prepare 2× substrate solution. 10 μL of 2× enzyme solution was transferred to assay plate or 10 μL of 1× assay buffer for low control group. 10 μL of 2× substrate solution was added to each well to start reaction. mP data on Envision (Ex480/Em535(s), Em535(p)) was collected.
Compound potencies were determined by first calculating % inhibition at each compound concentration according to equation 1:
Inhibition %=(Max−Signal)/(Max−Min)*100 (Equation 1)
Y=Bottom+(Top-Bottom)/(1+(IC50/X)[…]), where Y is % inhibition and X is compound concentration (Equation 2)

MOLM13 cells = experiment: Cell proliferation assay (CellTiter-Glo), MOLM13; assay type: cell-based, human; conditions: Homo sapiens, MOLM-13, 288 h; MOLM13 (MLL-AF9), 12 days incubation; read-out: Cell antiproliferation assay MOLM13 IC50
Description: as §1

HL-60 cells = experiment: Cell proliferation assay (CellTiter-Glo), HL-60 control line; assay type: cell-based, human; conditions: Homo sapiens, 96 h, 4 days incubation; for IC50: HL-60 control line (MLL wildtype), read-out: Cell antiproliferation assay HL-60 IC50; for inhibition at 10 µM: HL-60 control line, read-out: HL-60 (Pct of inhibition at 10 μM)
Description: as §1

OCI-AML3 cells = experiment: Cell proliferation assay (CellTiter-Glo), OCI-AML3; assay type: cell-based, human; conditions: Homo sapiens, OCI-AML-3, 120 h; OCI-AML3 (NPM1c mutation), 5 days incubation; read-out: Cell antiproliferation assay OCI-AML3 IC50
Description: as §1

[1] = Liver microsome stability study; assay type: in vitro ADME; conditions: human liver microsomes 0.5 mg/mL, 1 μM compound, NADPH, 37° C.; read-out: Human liver microsome T1/2
Description: Studies were carried out in liver microsomes (Corning, 0.5 mg/mL). Stock solutions were prepared at 10 mM in DMSO for the test compounds. Aliquots of the stock solutions were diluted to 0.5 mM with acetonitrile, and then further diluted upon the addition of liver microsomes/buffer to 1.5 μM. An aliquot of 30 μL of 1.5 μM solutions was mixed with 15 μL of 6 mM NADPH and the final concentration of NADPH was 2 mM, which had been pre-warmed to 37° C. Test compounds and Ketanserin final concentrations were 1 μM. The plates were kept in a 37° C. water bath for the duration of the experiment. At each time point (0, 5, 15, 30, 45 minutes), 135 μL of acetonitrile was added into corresponding wells. After the final time point was quenched by acetonitrile, the assay plates were shaken at the vibrator (IKA, MTS 2/4) for 10 min (600 rpm/min) and then centrifuged at 5,594 g for 15 min (Thermo Multifuge×3R). Aliquots of the supernatant were taken, diluted 1:1 into distilled water, and analyzed by LC-MS/MS. The peak area response ratio to internal standard (PARR) of the compounds at 5, 15, 30, 45 minutes was compared to the PARR at time 0 to determine the percent of test compound remaining at each time point. Half-lives were calculated using Excel software, fitting to a single-phase exponential decay equation.

Row | SMILES | IC50 (MV-4-11 cells) [nM] | IC50 (Menin-MLL1) [nM] | IC50 (MOLM13 cells) [nM] | IC50 (HL-60 cells) [nM] | IC50 (OCI-AML3 cells) [nM] | half-life at 1 μM [1] [h] | inhibition at 10 µM (HL-60 cells) [%]
1 | CCN(C(=O)c1cc(F)ccc1Oc1cncnc1N1CC2(CCN(C(=O)[C@H]3NCC[C@@H]3C)CC2)C1)C(C)C [Example 41] | 7.7 | 3.6 | 23.7 | > 10000 | 31.4 |  | -22.2
2 | CC(C)N(C(=O)c1cc(F)ccc1Oc1nncnc1N1CC2(CCN(C(=O)[C@H]3NCC[C@@H]3C)CC2)C1)C(C)C [Example 64] | 9.6 | 1.9 | 20.2 | > 10000 |  |  | 11.2
3 | CCN(C(=O)c1cc(F)ccc1Oc1cncnc1N1CC2(CCN(C(=O)[C@@H]3C[C@@H](C)CN3)CC2)C1)C(C)C [Example 47] | 15.9 | 3.7 |  | > 10000 |  |  | -10.6
4 | CC(C)N(CCO)C(=O)c1cc(F)ccc1Oc1cncnc1N1CC2(CCN(C(=O)[C@@H]3C[C@@H](F)CN3)CC2)C1 [Example 49] | 57.3 | 3.6 |  | > 10000 |  |  | -8.4
5 | CC(C)N(C(=O)c1cc(F)ccc1Oc1nncnc1N1CC2(CCN(C(=O)[C@@H]3C[C@@H](F)CN3)CC2)C1)C(C)C [Example 56] | 16.8 | 3.7 | 68.3 | > 10000 | 132 |  | -12.2
6 | CC(C)n1ncc(Cl)c1-c1cc(F)ccc1Oc1cncnc1N1CC2(CCN(C(=O)[C@@H]3C[C@@H](F)CN3)CC2)C1 [Example 58] | 27.1 | 3.5 |  | > 10000 |  |  | -4.5
7 | CCN(C(=O)c1cc(F)ccc1Oc1cncnc1N1CC2(CCN(C(=O)[C@H]3NC[C@@H]4C[C@@H]43)CC2)C1)C(C)C [Example 34] | 18 | 4.1 |  | > 10000 |  |  | -12.2
8 | CCN(C(=O)c1cc(F)ccc1Oc1cncnc1N1CC2(CCN(C(=O)[C@@]3(C)CCCN3)CC2)C1)C(C)C [Example 29] | 271 | 7 |  |  |  |  | 
9 | C[C@@H]1COCCN1C(=O)c1cc(F)ccc1Oc1cncnc1N1CC2(CCN(C(=O)[C@@H]3C[C@@H](F)CN3)CC2)C1 [Example 51] | 221 | 4.3 |  |  |  |  | 

The next lines start with results.

Row | IC50 (MV-4-11 cells) [nM] | IC50 (Menin-MLL1) [nM] | IC50 (MOLM13 cells) [nM] | IC50 (HL-60 cells) [nM] | IC50 (OCI-AML3 cells) [nM] | half-life at 1 μM [1] [h] | SMILES | inhibition at 10 µM (HL-60 cells) [%]
10 | 9.5 | 4.6 | 49.5 | > 10000 | 52.7 |  | CC[C@H]1CCN[C@@H]1C(=O)N1CCC2(CC1)CN(c1ncnnc1Oc1ccc(F)cc1C(=O)N(CC)C(C)C)C2 [Example 70] | 1
11 | 5.9 | 9.9 | 15.6 | > 10000 | 25.9 |  | C[C@H]1CCN[C@@H]1C(=O)N1CCC2(CC1)CN(c1ncnnc1Oc1ccc(F)cc1-c1ccc(C#N)cc1C1CC1)C2 [Example 79] | 33.8
12 | 56.3 | 5.5 |  |  |  | 2.63 | C[C@H]1CN[C@H](C(=O)N2CCC3(CC2)CN(c2ncnnc2Oc2ccc(F)cc2-c2cncnc2C2CC2)C3)C1 [Example 72] | 
13 | 20.5 | 2.8 | 61.1 | > 10000 |  |  | N#Cc1ccc(-c2cc(F)ccc2Oc2nncnc2N2CC3(CCN(C(=O)[C@@H]4C[C@@H](F)CN4)CC3)C2)c(C2CC2)c1 [Example 67] | 23.8
14 | 24.2 | 3.2 | 68.6 | > 10000 | 102 |  | CCN(C(=O)c1cc(F)ccc1Oc1nncnc1N1CC2(CCN(C(=O)[C@H]3NCC[C@@H]3CF)CC2)C1)C(C)C [Example 88] | 11.4
15 | 7.7 | 3.9 | 16.6 | > 10000 | 25.5 |  | CC1(C)[C@@H]2[C@@H](C(=O)N3CCC4(CC3)CN(c3ncnnc3Oc3ccc(F)cc3-c3cncnc3C3CC3)C4)NC[C@@H]21 [Example 81] | 21.4
16 | 39 | 4.3 |  | > 10000 |  |  | O=C([C@H]1NC[C@@H]2C[C@@H]21)N1CCC2(CC1)CN(c1ncnnc1Oc1ccc(F)cc1-c1cncnc1C1CC1)C2 [Example 80] | 0
17 | 6.5 | 2.9 | 14.2 | > 10000 | 28.1 |  | N#Cc1ccc(-c2cc(F)ccc2Oc2nncnc2N2CC3(CCN(C(=O)[C@H]4NC[C@@H]5C[C@@H]54)CC3)C2)c(C2CC2)c1 [Example 78] | 40
18 | 76 | 3.6 | 199 | > 10000 | 282 |  | CC[C@@H]1[C@@H](C(=O)N2CCC3(CC2)CN(c2ncnnc2Oc2ccc(F)cc2C(=O)N(CC)C(C)C)C3)NC[C@@H]1F [Example 86] | 10.8
19 | 2.6 | 2.8 | 6.1 |  |  |  | N#Cc1ccc(-c2cc(F)ccc2Oc2nncnc2N2CC3(CCN(C(=O)[C@H]4NC[C@@H]5CCC[C@@H]54)CC3)C2)c(C2CC2)n1 [Example 90] | 
20 | 76.7 | 5.5 |  | > 10000 |  |  | CCN(C(=O)c1cc(F)ccc1Oc1nncnc1N1CC2(CCN(C(=O)[C@H]3NCc4ccccc43)CC2)C1)C(C)C [Example 85] | -2.8
